Where two headings read alike, the source gives them in different places.
Assays:
human α4β7 = biological target: T1, human α4β7 (Homo sapiens, UniProt P13612+P26010); experiment: α4β7-K562 Cell Adhesion Assay (α4β7 Mediated Adhesion/VCAM-1); assay type: cell-based
T1 construct: expressed in transfected cells
T1 sequence (P13612 34-1032): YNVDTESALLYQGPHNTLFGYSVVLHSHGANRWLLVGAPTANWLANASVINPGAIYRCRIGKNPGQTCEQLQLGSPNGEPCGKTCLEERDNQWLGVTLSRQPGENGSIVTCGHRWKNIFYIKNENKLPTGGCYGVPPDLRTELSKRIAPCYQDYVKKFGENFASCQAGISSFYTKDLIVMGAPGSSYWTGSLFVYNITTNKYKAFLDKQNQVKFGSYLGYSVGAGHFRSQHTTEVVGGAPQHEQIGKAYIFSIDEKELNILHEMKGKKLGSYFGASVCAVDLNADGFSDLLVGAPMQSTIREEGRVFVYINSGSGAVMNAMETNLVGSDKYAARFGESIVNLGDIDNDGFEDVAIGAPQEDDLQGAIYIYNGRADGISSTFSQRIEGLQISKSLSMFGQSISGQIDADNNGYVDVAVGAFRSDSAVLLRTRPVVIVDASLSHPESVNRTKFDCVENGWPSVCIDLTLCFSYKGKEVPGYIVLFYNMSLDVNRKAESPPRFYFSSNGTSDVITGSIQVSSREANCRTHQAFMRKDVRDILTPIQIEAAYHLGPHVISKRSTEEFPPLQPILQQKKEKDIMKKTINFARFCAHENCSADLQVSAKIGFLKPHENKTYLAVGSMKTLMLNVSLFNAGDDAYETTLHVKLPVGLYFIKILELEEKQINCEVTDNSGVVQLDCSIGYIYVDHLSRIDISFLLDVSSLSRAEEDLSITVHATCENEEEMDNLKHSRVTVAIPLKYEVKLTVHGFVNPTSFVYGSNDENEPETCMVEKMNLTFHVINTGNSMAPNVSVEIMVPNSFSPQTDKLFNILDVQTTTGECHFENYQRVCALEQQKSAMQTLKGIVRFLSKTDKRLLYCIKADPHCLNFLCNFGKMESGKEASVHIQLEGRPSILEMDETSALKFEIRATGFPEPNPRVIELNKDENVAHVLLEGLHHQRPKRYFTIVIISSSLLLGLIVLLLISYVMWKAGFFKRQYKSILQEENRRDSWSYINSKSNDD
T1 sequence (P26010 20-798): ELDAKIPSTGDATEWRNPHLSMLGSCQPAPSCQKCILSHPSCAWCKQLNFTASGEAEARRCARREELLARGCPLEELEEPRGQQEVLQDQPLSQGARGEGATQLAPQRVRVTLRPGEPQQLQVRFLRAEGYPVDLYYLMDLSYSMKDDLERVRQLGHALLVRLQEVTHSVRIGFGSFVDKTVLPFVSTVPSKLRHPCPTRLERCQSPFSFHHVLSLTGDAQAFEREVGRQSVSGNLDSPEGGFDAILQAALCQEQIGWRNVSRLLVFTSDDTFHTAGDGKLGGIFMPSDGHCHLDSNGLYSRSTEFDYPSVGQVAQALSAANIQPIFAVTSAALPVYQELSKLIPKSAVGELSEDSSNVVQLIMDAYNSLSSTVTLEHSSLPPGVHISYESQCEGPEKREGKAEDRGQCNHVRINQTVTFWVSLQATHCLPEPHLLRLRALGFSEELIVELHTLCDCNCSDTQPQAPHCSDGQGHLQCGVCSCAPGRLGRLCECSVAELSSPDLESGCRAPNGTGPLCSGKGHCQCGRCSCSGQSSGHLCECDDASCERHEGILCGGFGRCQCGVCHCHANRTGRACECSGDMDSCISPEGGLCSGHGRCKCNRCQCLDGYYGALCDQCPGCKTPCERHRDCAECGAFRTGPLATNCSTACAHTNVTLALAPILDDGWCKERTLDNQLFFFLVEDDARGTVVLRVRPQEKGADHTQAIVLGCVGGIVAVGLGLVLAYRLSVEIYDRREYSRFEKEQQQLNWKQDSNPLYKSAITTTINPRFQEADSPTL
Protocol: (§1) α4β7-K562 Cell Adhesion Assay (α4β7 Mediated Adhesion/VCAM-1) Immulon 96 well plates (Dynex) were coated with 100 μL recombinant hVCAM-1 at 4.0 μg/mL in 0.05 M NaCO3 buffer pH 9.0 overnight at 4° C. (R&D Systems). Plates were washed 3 times in PBS with 1% BSA and blocked for 1 h @room temperature in this buffer. PBS was removed and compounds to be tested (50 μL) were added at 2× concentration. A stable cell line of K562 cells expressing human α4β7, (50 μL at 2×10^6/mL) labeled with 5 μM Calcein AM (Molecular Probes) for 1 h at 37° C., were added to each well and allowed to adhere for 1 h at room temperature. Plates were washed 3× in PBS+1% BSA and cells were lysed for 15 minutes in 100 μL of 1 M Tris pH 8.0 with 1% SDS. The plate was read at 485 nm excitation and 530 nm emission.

α4β1 [1] = biological target: T2, α4β1 (Homo sapiens, UniProt P05556+P13612); experiment: Ramos Cell Adhesion Assay (α4β1 Mediated Adhesion/VCAM-1); assay type: cell-based; design: Ramos Cell Adhesion Assay (α4β1 Mediated Adhesion/VCAM-1); endogenous in cells; host or cells: Ramos cells
T2 sequence (P05556 21-798, one chain of several): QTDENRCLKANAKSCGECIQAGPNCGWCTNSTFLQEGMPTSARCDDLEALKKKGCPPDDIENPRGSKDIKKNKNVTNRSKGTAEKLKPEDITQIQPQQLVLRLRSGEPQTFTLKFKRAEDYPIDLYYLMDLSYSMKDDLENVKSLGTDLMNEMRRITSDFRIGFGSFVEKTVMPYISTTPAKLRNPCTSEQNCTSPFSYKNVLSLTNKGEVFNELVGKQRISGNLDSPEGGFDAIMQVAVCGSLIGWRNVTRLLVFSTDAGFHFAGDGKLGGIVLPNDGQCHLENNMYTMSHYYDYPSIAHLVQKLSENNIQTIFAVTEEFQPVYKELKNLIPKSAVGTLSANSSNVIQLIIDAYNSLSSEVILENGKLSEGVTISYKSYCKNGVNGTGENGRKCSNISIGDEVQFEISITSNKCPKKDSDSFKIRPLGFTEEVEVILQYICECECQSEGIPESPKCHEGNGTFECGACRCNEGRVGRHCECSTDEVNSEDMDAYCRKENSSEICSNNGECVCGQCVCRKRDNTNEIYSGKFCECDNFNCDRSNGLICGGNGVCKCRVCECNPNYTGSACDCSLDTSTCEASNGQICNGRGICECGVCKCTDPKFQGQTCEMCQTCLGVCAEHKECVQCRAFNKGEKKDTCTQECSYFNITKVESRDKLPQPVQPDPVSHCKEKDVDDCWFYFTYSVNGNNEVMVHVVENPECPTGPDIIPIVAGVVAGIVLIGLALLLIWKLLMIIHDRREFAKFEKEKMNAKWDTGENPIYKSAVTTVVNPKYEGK
Protocol: as §1, with “Ramos” for “α4β7-K562”, “(α4β1” for “(α4β7”, “@ room” for “@room”, “Ramos cells,” for “A stable cell line of K562 cells expressing human α4β7,”

α4β1 [2] = biological target: T2, α4β1; details: background, literature; cited from earlier work
[3] = system: oxazolone-induced contact hypersensitivity; details: mouse, 6 mg/kg, sc; cited from earlier work
[4] = system: heterotopic heart allograft; details: hyperlipidemic rabbit; cited from earlier work
[5] = K562 cells expressing human α4β7, adhesion to recombinant hVCAM-1, read-out: α4β7 IC50
[6] = Ramos cells, adhesion to recombinant hVCAM-1, read-out: α4β1 IC50

## O=C(Nc1ccc(CC(NC(=O)C2C3CCC(CC3)N2C(=O)CSc2ccccn2)C(=O)O)cc1)c1c(Cl)cncc1Cl (centres unmarked) [Cpd 1]
Human α4β7; [5]
  IC50: 10 nM
α4β1 [1]; [6]
  IC50: 9 nM

## O=C(Nc1ccc(CC(NC(=O)C2C3CCC(CC3)N2C(=O)CSc2ccc(F)cc2)C(=O)O)cc1)c1c(Cl)cncc1Cl (centres unmarked) [Cpd 2]
Human α4β7; [5]
  IC50: 20 nM
α4β1 [1]; [6]
  IC50: 6 nM

## O=C(Nc1ccc(CC(NC(=O)C2C3CCC(CC3)N2C(=O)CSc2ccncc2)C(=O)O)cc1)c1c(Cl)cncc1Cl (centres unmarked) [Cpd 3]
Human α4β7; [5]
  IC50: 6 nM
α4β1 [1]; [6]
  IC50: 6 nM

## CS(=O)(=O)CC(=O)N1C2CCC(CC2)C1C(=O)NC(Cc1ccc(NC(=O)c2c(Cl)cncc2Cl)cc1)C(=O)O (centres unmarked) [Cpd 5]
Human α4β7; [5]
  IC50: 32 nM
α4β1 [1]; [6]
  IC50: 17 nM

## O=C(Nc1ccc(CC(NC(=O)C2C3CCC(CC3)N2C(=O)CS(=O)(=O)c2ccccc2)C(=O)O)cc1)c1c(Cl)cncc1Cl (centres unmarked) [Cpd 6]
Human α4β7; [5]
  IC50: 27 nM
α4β1 [1]; [6]
  IC50: 15 nM

## O=C(Nc1ccc(CC(NC(=O)C2C3CCC(CC3)N2C(=O)CCO)C(=O)O)cc1)c1c(Cl)cncc1Cl (centres unmarked) [Cpd 8]
Human α4β7; [5]
  IC50: 6 nM
α4β1 [1]; [6]
  IC50: 4 nM

## O=C(Nc1ccc(CC(NC(=O)C2C3CCC(CC3)N2C(=O)CCO)C(=O)O)cc1)c1c(Cl)cccc1Cl (centres unmarked) [Cpd 9]
Human α4β7; [5]
  IC50: 67 nM
α4β1 [1]; [6]
  IC50: 135 nM

## O=C(O)C(Cc1ccc(OC(=O)N2CCOCC2)cc1)NC(=O)C1C2CCC(CC2)N1C(=O)CCO (centres unmarked) [Cpd 10]
Human α4β7; [5]
  IC50: 896 nM
α4β1 [1]; [6]
  IC50: > 1000 nM

## CC(C)(O)CCCC(=O)N1C2CCC(CC2)C1C(=O)NC(Cc1ccc(NC(=O)c2c(Cl)cncc2Cl)cc1)C(=O)O (centres unmarked) [Cpd 11]
Human α4β7; [5]
  IC50: 47 nM
α4β1 [1]; [6]
  IC50: 14 nM

## COCCC(=O)N1C2CCC(CC2)C1C(=O)NC(Cc1ccc(NC(=O)c2c(Cl)cncc2Cl)cc1)C(=O)O (centres unmarked) [Cpd 12]
Human α4β7; [5]
  IC50: 117 nM
α4β1 [1]; [6]
  IC50: 8 nM

## COCCC(=O)Nc1ccc(CC(NC(=O)C2C3CCC(CC3)N2C(=O)CCOC)C(=O)O)cc1 (centres unmarked) [Cpd 13]
Human α4β7; [5]
  IC50: 2370 nM
α4β1 [1]; [6]
  IC50: > 1000 nM

## COCCC(=O)N1C2CCC(CC2)C1C(=O)NC(Cc1ccc(OC(=O)N(C)C)cc1)C(=O)O (centres unmarked) [Cpd 14]
Human α4β7
  IC50: 304 nM
α4β1 [1]
  IC50: 1270 nM

## NCCC(=O)N1C2CCC(CC2)C1C(=O)NC(Cc1ccc(NC(=O)c2c(Cl)cncc2Cl)cc1)C(=O)O (centres unmarked) [Cpd 15]
Human α4β7; [5]
  IC50: 60 nM
α4β1 [1]; [6]
  IC50: 29 nM

## CN(C)CCC(=O)N1C2CCC(CC2)C1C(=O)NC(Cc1ccc(NC(=O)c2c(Cl)cncc2Cl)cc1)C(=O)O (centres unmarked) [Cpd 16]
Human α4β7; [5]
  IC50: 177 nM
α4β1 [1]; [6]
  IC50: 23 nM

## O=C(Nc1ccc(CC(NC(=O)C2C3CCC(CC3)N2C(=O)CCc2ccc3c(c2)OCO3)C(=O)O)cc1)c1c(Cl)cccc1Cl (centres unmarked) [Cpd 22]
Human α4β7; [5]
  IC50: 35 nM
α4β1 [1]; [6]
  IC50: 45 nM

## O=C(O)C(Cc1ccc(OC(=O)N2CCOCC2)cc1)NC(=O)C1C2CCC(CC2)N1C(=O)CCc1ccc2c(c1)OCO2 (centres unmarked) [Cpd 23]
Human α4β7; [5]
  IC50: 277 nM
α4β1 [1]; [6]
  IC50: 217 nM

## Phenylacetyl-Leu-Asp-Phe-D-Pro-NH2
α4β1 [2]
  IC50: 2000 nM
[3]
  efficacy in oxazolone-induced contact hypersensitivity: efficacy similar to the α4 antibody PS/2
[4]
  efficacy in heart allograft model: effective

— patent US20050176755A1, “Aza-bridged-bicyclic amino acid derivatives as alpha4 integrin antagonists” (priority 2003, published 2005)
